Test results published in paper PMC6117091, “The C. difficile clnRAB operon initiates adaptations to the host environment in response to LL-37” (PLoS Pathogens, 2018).

Tests used:
[1] = test system: tcdA, tcdB, sigD, tcdR, ilvC, CD0341 expression in C. difficile 630Δerm; test: Toxin and regulator gene expression by qRT-PCR in LL-37
[2] = test system: C. difficile clnR and clnAB mutants; test: Growth in minimal medium with LL-37 (growth curves); details: 0.5 μg/ml LL-37; base MM, MM with mannitol, NAG, EA; versus parent strain
[3] = 2 μg/ml LL-37, BHIS, log phase, wild-type cells, p < 0.05
[4] = 2 µg/ml LL-37, normalized to 630∆erm in BHIS, mean of three replicates ± SEM

CC[C@H](C)[C@H](NC(=O)[C@H](CCCCN)NC(=O)[C@H](CCC(=O)O)NC(=O)[C@H](CCCCN)NC(=O)[C@H](CO)NC(=O)[C@H](CCCCN)NC(=O)[C@H](CCCNC(=N)N)NC(=O)[C@H](Cc1ccccc1)NC(=O)[C@H](Cc1ccccc1)NC(=O)[C@H](CC(=O)O)NC(=O)CNC(=O)[C@H](CC(C)C)NC(=O)[C@@H](N)CC(C)C)C(=O)NCC(=O)N[C@@H](CCCCN)C(=O)N[C@@H](CCC(=O)O)C(=O)N[C@@H](Cc1ccccc1)C(=O)N[C@@H](CCCCN)C(=O)N[C@@H](CCCNC(=N)N)C(=O)N[C@H](C(=O)N[C@H](C(=O)N[C@@H](CCC(N)=O)C(=O)N[C@@H](CCCNC(=N)N)C(=O)N[C@H](C(=O)N[C@@H](CCCCN)C(=O)N[C@@H](CC(=O)O)C(=O)N[C@@H](Cc1ccccc1)C(=O)N[C@@H](CC(C)C)C(=O)N[C@@H](CCCNC(=N)N)C(=O)N[C@@H](CC(N)=O)C(=O)N[C@@H](CC(C)C)C(=O)N[C@H](C(=O)N1CCC[C@H]1C(=O)N[C@@H](CCCNC(=N)N)C(=O)N[C@H](C(=O)N[C@@H](CCC(=O)O)C(=O)N[C@@H](CO)C(=O)O)[C@@H](C)O)C(C)C)[C@@H](C)CC)C(C)C)[C@@H](C)CC [LL-37]
tcdA expression, fold increase [1, 3]: 4.6 fold
tcdB expression, fold increase [1, 3]: 2.2 fold
sigD fold-change in expression in LL-37 [1, 4]: 0.95 ± 0.08
tcdR fold-change in expression in LL-37 [1, 4]: 1.47 ± 0.44
ilvC fold-change in expression in LL-37 ([1]; 2 µg/ml LL-37, normalized to 630∆erm in BHIS, mean of three replicates ± SEM, indicates CodY activity): 2.21 ± 0.20
ilvC expression, fold increase ([1]; LL-37, p < 0.05): 2.2 fold
growth (in words) [2]: grew better than the parent strain
